Laboratory results reported in ChEMBL document CHEMBL3507680, “University of Dundee, Gates Library screen for HepG2 cell viability”.

Experiment: Human HepG2 cell viability assay in 384 well format
Format: toxicity, cell-based
Design: dose 125 nL, time 70.5 hour; cytotoxicity at 70.5 h: concentration not given beside the values
Conditions: HepG2 cells, read-out: Inhibition
C[C@@H]1CN(C(=O)C2(Cn3cccn3)CC2)CC[C@@]1(O)C1CC1 gave a cytotoxicity at 70.5 h of 26.3%.
O=C(Nc1cccnc1-n1cc(Cl)cn1)C1CCCCC1 showed a cytotoxicity at 70.5 h of -26.8%.
With CNC(=O)CN1CCC(CN(C)CCSc2ccccc2)CC1 the cytotoxicity at 70.5 h was -0.471%.
CC(C)c1noc(CCCC(=O)N2CCN(Cc3ccccn3)CC2)n1 showed a cytotoxicity at 70.5 h of -11.6%.
For CNC(=O)CS(=O)(=O)C1CCN(S(=O)(=O)C2CC2)CC1, the cytotoxicity at 70.5 h was -3.01%.
Compound CN(Cc1cnn(C)c1)C(=O)CN1CCCC1Cn1cncn1 (configuration not stated) has a cytotoxicity at 70.5 h of 21.4%.
With COc1cc2nc(C)n(CC(=O)NCCCN(C)C)c(=O)c2cc1OC the cytotoxicity at 70.5 h was 6.18%.
With Cc1ccc(-c2ncc(C(=O)N3CCCN4CCC[C@H]4C3)c(O)n2)cc1 the cytotoxicity at 70.5 h was 5.02%.
With CCc1nc(C2CCCN2Cc2nnc(CC)o2)no1 (configuration not stated) the cytotoxicity at 70.5 h was -9.92%.
With CCn1cc(CN2CCc3nc(-c4ccccn4)nc(O)c3C2)cn1 the cytotoxicity at 70.5 h was -10%.
In the case of CC(=O)N[C@H]1CCO[C@@H](c2cccc(NC(=O)c3ccc(=O)[nH]n3)c2)C1, the cytotoxicity at 70.5 h is reported as 24.6%.
CC(C)Oc1ccc(C(=O)N2CCC(Nc3cccnn3)CC2)cn1 gave a cytotoxicity at 70.5 h of -5.88%.
Compound CCC(=O)N(C)C1CCN(Cc2ncc(C)c(OC)c2C)CC1 has a cytotoxicity at 70.5 h of -17.3%.
Work on CCn1cc(CN(C)C(=O)c2cc(C(F)(F)F)n(C)n2)cn1 yielded a cytotoxicity at 70.5 h of -7.42%.
Work on CC(=O)N1CCC[C@@H](NCc2ccc(F)cc2)[C@@H]1c1ccc(C)s1 yielded a cytotoxicity at 70.5 h of -8.87%.
O=C1COC2(CCN(S(=O)(=O)C3CC3)CC2)CN1c1cccnc1 showed a cytotoxicity at 70.5 h of 40.1%.
With Cc1ccc(S(=O)(=O)NC2CC2)cc1C the cytotoxicity at 70.5 h was -5.86%.
For Cc1nc(CC(=O)N2CCn3c(nnc3C(C)C)C2)cs1, the cytotoxicity at 70.5 h was -2.25%.
Compound CCC(=O)c1ccc(OCC(=O)NC(C)c2nnc(C)[nH]2)cc1 (configuration not stated) has a cytotoxicity at 70.5 h of -3.79%.
For O=C1[C@H]2CN(C(=O)[C@H]3CCCO3)C[C@H]2CN1CC1CC1, the cytotoxicity at 70.5 h was -5.67%.
O=C(Nc1cccnc1)[C@H]1CN(C2CCCC2)C[C@H]2OCC[C@@H]12 gave a cytotoxicity at 70.5 h of -2.64%.
With CN(Cc1cc(C2CC2)on1)C(=O)CN1C(=O)OC(C)(C)C1=O the cytotoxicity at 70.5 h was 0.377%.
Compound CCOc1ncccc1C(=O)N(C)C1CCN(c2ccccn2)CC1 has a cytotoxicity at 70.5 h of 2.78%.
Work on CCc1ncc2c(n1)CN(C(=O)c1c(C)[nH]c(C(C)=O)c1C)C2 yielded a cytotoxicity at 70.5 h of -9.15%.
With CCc1nc(C2CCCN(C(=O)CCn3ccccc3=O)C2)no1 (configuration not stated) the cytotoxicity at 70.5 h was -0.684%.
In the case of O=C(Nc1ccc(CN2CCOCC2)cc1)c1nccn2ccnc12, the cytotoxicity at 70.5 h is reported as 22.2%.
For Cc1cccc(Nc2cccc(C3CCCN(Cc4ncc[nH]4)C3)n2)n1 (configuration not stated), the cytotoxicity at 70.5 h was -8.27%.
Compound Cc1ccc(CNC(=O)CN(C)CC2CCN(CCO)CC2)s1 has a cytotoxicity at 70.5 h of 2.24%.
Compound CN(C)[C@@H]1CCN(C(=O)Cc2ccc(F)cc2)[C@H]1Cc1ccncc1 has a cytotoxicity at 70.5 h of -15.9%.
With CCS(=O)(=O)CC(=O)Nc1cccc2c1CN(CC(C)C)C2 the cytotoxicity at 70.5 h was -0.0392%.
Compound c1ncn(Cc2nnc(C3CCN(C4CCOCC4)CC3)n2C2CC2)n1 has a cytotoxicity at 70.5 h of -7.09%.
In the case of COc1ncc(NS(=O)(=O)c2ccc(F)cc2F)cn1, the cytotoxicity at 70.5 h is reported as -3.22%.
Work on CN1CCCC(c2cccc(-c3cccc(Cl)c3)n2)C1 (configuration not stated) yielded a cytotoxicity at 70.5 h of 18%.
With O=C(Nc1cccnc1N1CCSCC1)c1ccc2c(c1)CCO2 the cytotoxicity at 70.5 h was 53.2%.
In the case of CC(C)OCc1ccc(CNc2cncc(-n3cccn3)n2)cc1, the cytotoxicity at 70.5 h is reported as -5.97%.
Work on O=S(=O)(NC1CCN(CC(F)(F)F)C1)c1cc(F)cc(F)c1 (configuration not stated) yielded a cytotoxicity at 70.5 h of 12.7%.
Cn1cc(NC(=O)CCc2ccsc2)ccc1=O showed a cytotoxicity at 70.5 h of -5.97%.
Compound CC(C)S(=O)(=O)CC(=O)N1CCCC(n2ccnc2)C1 (configuration not stated) has a cytotoxicity at 70.5 h of -0.47%.
Compound Cc1cncc(C(=O)N2CCC3(CCCN(c4nncs4)C3)C2)c1 (configuration not stated) has a cytotoxicity at 70.5 h of -3.85%.
Compound O=C1COc2ccccc2N1CCCn1cnnn1 has a cytotoxicity at 70.5 h of -9.54%.
O=C(O)CN1CCC(c2ccccc2)CC1 showed a cytotoxicity at 70.5 h of -3.19%.
Work on CCc1nc(CN2CCCC(N(C)CCn3cncn3)C2)no1 (configuration not stated) yielded a cytotoxicity at 70.5 h of -9.76%.
O=C(Nc1cc(C(F)(F)F)ccc1Cl)c1ccc(N2CCCC2)nn1 showed a cytotoxicity at 70.5 h of 19.7%.
Compound CCCSCC(=O)N1CCN(c2ccc(C)cc2)CC1C (configuration not stated) has a cytotoxicity at 70.5 h of -14.9%.
Compound O=C(NC1CC1)C1CCc2nnc(-c3cccc(C(F)(F)F)c3)n21 (configuration not stated) has a cytotoxicity at 70.5 h of -11.5%.
Compound Cc1nc2cc(O)nn2c(C)c1CCC(=O)NCCc1ccccc1 has a cytotoxicity at 70.5 h of 10.3%.
Cc1cccc(C2CC(=O)Nc3c2c(=O)[nH]n3C(C)C)c1 (configuration not stated) showed a cytotoxicity at 70.5 h of -11.1%.
Compound CN(C)C(=O)Cn1ccc2cc(NC(=O)N3CCSCC3)ccc21 has a cytotoxicity at 70.5 h of -7.46%.
For O=C(O)c1ccc(CCNC(=O)C2(c3ccccc3)CC2)cc1, the cytotoxicity at 70.5 h was 12.5%.
Work on COc1nn(C)c2c1CCCN(C(=O)c1cccn1C)C2 yielded a cytotoxicity at 70.5 h of -41.9%.
Compound c1ccc(CN2CCC3(CC2)CCN(Cc2cccs2)C3)nc1 has a cytotoxicity at 70.5 h of 0.064%.
Work on Cn1cc(S(=O)(=O)NC(CO)Cc2c[nH]c3ccccc23)cn1 (configuration not stated) yielded a cytotoxicity at 70.5 h of -7.44%.
CNC(=O)C1CCN(c2ncc3c(n2)CCN3c2ccccc2)C1 (configuration not stated) showed a cytotoxicity at 70.5 h of -4.33%.
With CN(Cc1noc(C2CC2)n1)C1CCN(CCS(C)(=O)=O)C1 (configuration not stated) the cytotoxicity at 70.5 h was -3.36%.
COC(=O)c1cccn1C1CCN(Cc2cccnc2)CC1 gave a cytotoxicity at 70.5 h of 4.46%.
For CC1CN(C(=O)c2ccc(=O)n(C)c2)c2ccccc2NC1=O (configuration not stated), the cytotoxicity at 70.5 h was -0.859%.
Work on O=C(NCC1CC1)C1CN(c2ncccn2)Cc2ccnn2C1 (configuration not stated) yielded a cytotoxicity at 70.5 h of -14.5%.
With O=C([C@H]1CCCO1)N1CC[C@@H](O)[C@@H]1Cc1ccccc1 the cytotoxicity at 70.5 h was -8.36%.
With Cc1noc(C(C)N2CCN(CCC(=O)N3CCOCC3)CC2)n1 (configuration not stated) the cytotoxicity at 70.5 h was -5.76%.
In the case of Cc1ccc2oc(=O)n(CCC(=O)N3CCC4(CN(C)C(=O)O4)C3)c2c1 (configuration not stated), the cytotoxicity at 70.5 h is reported as -1.59%.
For O=C(COC1CCCC1)NCCc1nc(-c2ccccn2)cs1, the cytotoxicity at 70.5 h was -3.01%.
With CSCC[C@H](NC(=O)Cn1ccc2c(Br)cccc21)C(=O)O the cytotoxicity at 70.5 h was -21.8%.
Clc1ccc(C2(NCc3noc(C4CC4)n3)CCOCC2)cc1 showed a cytotoxicity at 70.5 h of -8.54%.
With Cc1occc1C(=O)N1CCc2c(CNS(C)(=O)=O)cncc2C1 the cytotoxicity at 70.5 h was -20.9%.
With Cn1ccnc(Sc2ccccc2)c1=O the cytotoxicity at 70.5 h was -9.9%.
CNC(=O)[C@@]12CCO[C@@H]1CCN(Cc1cccc(C)c1)C2 showed a cytotoxicity at 70.5 h of -12.5%.
Compound O=C(NCCC1=CCCCC1)c1[nH]nc2c1CCCC2 has a cytotoxicity at 70.5 h of 11.2%.
Work on O=C(O)c1coc(COc2cccc(F)c2)n1 yielded a cytotoxicity at 70.5 h of -4.11%.
Work on NC1C=C(C(F)(F)F)NC=C1c1ccccc1 (configuration not stated) yielded a cytotoxicity at 70.5 h of -0.126%.
In the case of CSc1[nH]nc(NC(=O)c2cccnc2)c1C#N, the cytotoxicity at 70.5 h is reported as -5.13%.
Compound c1ccc(-c2cc(CN3CCc4cncnc4C3)on2)cc1 has a cytotoxicity at 70.5 h of -4.72%.
Work on CC(c1cc(F)ccc1F)N(C)C(=O)NCc1ccnc(N(C)C)c1 (configuration not stated) yielded a cytotoxicity at 70.5 h of 2.05%.
With Cc1nc(C)c(C)c(N2CCC3(CCN(C)C3)C2)n1 (configuration not stated) the cytotoxicity at 70.5 h was -8.86%.
In the case of Cc1nc(C)n(CC2CCCN2CC(=O)NCCC#N)n1 (configuration not stated), the cytotoxicity at 70.5 h is reported as -19.9%.
Work on Cc1nc(C)n(CC2CCCN2Cc2nc3ccccc3n2C)n1 (configuration not stated) yielded a cytotoxicity at 70.5 h of -7.27%.
CC(C)C(=O)Nc1cc(C(=O)NC2CC(C)(C)NC(C)(C)C2)nn1C gave a cytotoxicity at 70.5 h of 14.5%.
With CN1C[C@@H](NC(=O)CC(C)(C)C)C[C@H]1c1nc(-c2cnccn2)no1 the cytotoxicity at 70.5 h was -0.594%.
Cc1cnc(N2CCCC(O)C2)nc1-c1ccnn1C (configuration not stated) showed a cytotoxicity at 70.5 h of 10.8%.
For CNC(=O)C1(CCCc2ccncc2)CCCCN1 (configuration not stated), the cytotoxicity at 70.5 h was 15.5%.
NCc1cn(-c2ccccc2C(=O)NCc2cccc(Cl)c2)cn1 showed a cytotoxicity at 70.5 h of -13.7%.
Work on O=C(c1cccnc1)N1Cc2ccccc2OCC1Cn1ccnc1 (configuration not stated) yielded a cytotoxicity at 70.5 h of 9.81%.
CCOC(=O)CN1C(=O)CN(S(C)(=O)=O)CCC(OC)c2ccccc21 (configuration not stated) gave a cytotoxicity at 70.5 h of -8.31%.
